Measurements taken from patent US20100143364A1, “Chimeric Antibodies, Compositions and Methods for Treating Cocaine-Related Disorders” (Vybion, Inc., priority 2008, published 2010).

Test: pharmacokinetics of cocaine in plasma after i.v. cocaine HCl
Assay type: in vivo
Conditions: 2-compartment model, no antibody, i.v. cocaine HCl 0.56 mg/kg
Procedure: The monoclonal antibodies, variants and/or derivatives of the present invention use their binding affinity for cocaine and its derivatives to reduce the concentration of cocaine or its derivatives in the brain. Infused antibodies, variants and/or derivatives also produce a dramatic dose-dependent increase in plasma cocaine concentrations and a concomitant decrease in the brain cocaine concentrations produced by an i.v. injection of cocaine HCI (0.56 mg/kg). […] The anti-cocaine antibodies, variants and/or derivatives of the invention increase the area under the plasma cocaine concentration-time curve (AUC) relative to the AUC in the absence of the anti-cocaine antibodies of the invention. The antibodies, variants and/or derivatives of the present invention decrease cocaine's volume of distribution (l/kg). However, cocaine is still rapidly cleared from plasma and its elimination is described by a single compartment model. The antibodies, variants and/or derivatives also produce a decrease in the cocaine AUC in the brain. Therefore, the effect of the antibodies on plasma and brain cocaine concentrations is predominantly due to a change in the distribution of cocaine with negligible effects on its rate of clearance.

COC(=O)[C@H]1[C@@H](OC(=O)c2ccccc2)C[C@@H]2CC[C@H]1N2C [cocaine]
distribution t1/2α: 1.9 min
terminal elimination t1/2β: 26.1 min
